The values below come from patent US11793816B2, “Methods for enhancing cytotoxic cancer therapy through inhibition of ATG4B” (Northwestern University, priority 2019, dated 2023).

Entries after “also recorded” stand apart in the source; their conditions may differ.

One test concerns U87 cells. Nature of the test: Cell viability assay, AZD2014, 72 h. The class given is cell-based. The procedure:
(§1) FIG. 5. A mTORC1/2 inhibitor AZD2014 inhibited cell survival, mTORC1 and mTORC2 activities in GSCs and glioma cells. (A) GSC M83 and JK83 and glioma cells U87 were treated with indicated concentration of AZD2014 for 72 h, then cell viability was evaluated. (B) GSC M83 and JK83 were treated with the indicated concentration of AZD2014 for 1 hr, or with 2 μM AZD2014 for the specified time. Cells were collected for immunoblot analysis. β-actin was used as a loading control; Results are representative of 2 independent experiments. *P<0.05, **P<0.01, paired two-way Student's t-test. Data are representative from three independent experiments with similar results.
Glioma cells U87 (from ATCC) were cultured in DMEM (Invitrogen) supplemented with 10% FBS and 1% penicillin and streptomycin. Neural progenitor cells were cultured in NPBM Neural Progenitor Basal medium supplemented with hEGF, hFGF, NSF-1 and GA (Lonza, Cat #: cc-3210, cc-4241 and cc-4242). […]
GSCs with single or combined treatments were cultured for 72 hours in 96-well plates at 2,000 cells per well. Cell viabilities were determined using CellTiter-Glow 2.0 Assay (Promega). […]

A further test has as its system GSC JK83 and M83. Nature of the test: Cell viability assay, AZD2014 and NSC, 72 h. The class given is cell-based. The procedure:
as §1
(§2) FIG. 6. NSC enhanced the cytotoxicity of a mTORC1/2 inhibitor AZD2014 in GSCs. (A) GSC M83 and JK83 were exposed to DMSO control vs AZD2014 vs NSCs vs AZD2014 in combination with NSC for 72 hr. Cells were collected for immunoblot analysis using indicated antibodies. (B) Immunofluorescence analyses for LC3B puncta in GSC M83 and JK83 cells with indicated treatments. (C and D) GSC M83 and JK83 and/or neural progenitor cells (NPC) were treated as indicated in (A), cell viability was tested at 72 h after treatment (C), and cell apoptosis was measured by Annexin V FACS assay 48 h after treatment. Data are representative from three independent experiments with similar results.
GSCs with single or combined treatments were cultured for 72 hours in 96-well plates at 2,000 cells per well. Cell viabilities were determined using CellTiter-Glow 2.0 Assay (Promega).
(§3) mTOR kinases are crucial regulators of glioma cell growth, proliferation and survival (Akhavan et al., 2010). […] A strong inhibition was achieved by 1 μM with complete block of mTORC1/2 activities at 2 μM (FIG. 5B).
(§4) Since autophagy activation is considered as a cytoprotective factor that contribute to tumor survival when challenged by therapies, it is proposed that block of autophagy activation by NSC would further enhanced the cytotoxicity of dual TORC1/2 inhibitor AZD2014.

Test [1] has as its system mTORC1 and mTORC2 activity in GSC M83 and JK83 cells. Nature of the test: Immunoblot of mTORC1 and mTORC2 activity in GSCs. It counts as cell-based. The procedure: as §1, §2
IB assays were performed as previously described (Huang et al., 2016b). Specific antibodies were used according to the manufacturer's instructions: LC3B (#3868S), pAKT (Ser473; 4060), pAKT(Thr308; 4056), AKT (4691), pS6(S235/236; 2211), S6 (2317), phosphorylated 4E-binding protein 1 (p4EBP1) (Thr37/46; 2855), 4EBP1 (9644), p-mTOR (Ser2448; 2971S), p-mTOR (Ser2481; 2974S), mTOR (2972S), pULK1(Ser317; 14202T), pULK1 (Ser757; 8054T), ULK1(6439), LAMP2 (49067S) were from Cell Signaling Technology. Anti-β-actin (SC-47778) and anti-SQSTM1/p62 (SC-28359) antibodies were from Santa Cruz Biotechnology. An anti-Ki-67 antibody (AB9260) was from EMD Millipore.
as §3, §4
(In general: A western blot detects proteins with antibodies after separation by electrophoresis.)

In test [2] the test system is LC3B, p62/SQSTM-1 and LAMP2 in GSC M83 and JK83 cells. Put plainly: Immunoblot of autophagy markers (LC3B, p62, LAMP2) in GSCs treated with AZD2014 and NSC. The class given is cell-based. The following applies: NSC in the presence of AZD2014. As for the experimental part:
as §1
as §2, with “results. […]” for “results.”

The subject of test [3] is LC3B puncta in GSC M83 and JK83 cells. Nature of the test: LC3B immunofluorescence (puncta, autophagosomes). The class given is cell-based. To be noted: NSC in cells treated with AZD2014. As for the experimental part: as §2
Immunofluorescent staining. GSCs were seeded onto LabTek CC2-treated tissue culture slides (Thermo Fisher) and cultured for 24 hours. Cells were then fixed with 4% formaldehyde (Fisher) for 15 min, and permeabilized with 0.1% Triton X-100, and then blocked with AquaBlock (East Coast Bio, North Berwick, Me.) for 60 minutes. The slides were incubated with indicated primary antibodies according to the manufacturer's instructions. After being washed for three times with PBS-T, cells were incubated with secondary antibody (Alexa 488 and 594, 1:200) and DAPI-containing mounting solution Vectashield (Vector Laboratories). Cells were analyzed on a Nikon inverted microscope Eclipse Ti-U equipped with a digital camera. […]

For test [4], the system named is GSC JK83 orthotopic xenografts. Put plainly: GSC JK83 orthotopic brain tumor xenograft model (survival, BLI, tissue staining). The class given is in vivo, mice. The source says: FIG. 7. NSC enhance anticancer efficacy of AZD2014 in a patient-derived GSC xenograft model. […] Treatments were started at one week post-implantation. Bioluminescent (BLI) images were taken after the last treatment, and representative images are shown. Scale bar, photons/sec/cm2/steradian. (B) Kaplan-Meier of mice bearing GSC JK83 orthotopic xenografts with indicated treatments. (C) The brains of mice bearing orthotopic xenografts with indicated treatments were collected for immunohistochemical evaluation using indicating antibody. *P<0.05, **p<0.01, […]. Data are representative from three independent experiments with similar results.
Frozen brain tissue sections with GBM xenografts were dried and then fixed in were fixed in 4% paraformaldehyde (PFA) in PBS for 5 minutes. Tissue sections were blocked with AquaBlock (East Coast Bio, North Berwick, Me.) for an hour and then were probed with appropriate primary antibodies 4° C. overnight. Tissue sections were incubated with Alexa 488 or 594 labelled secondary antibodies (1:200) and DAPI-containing mounting solution Vectashield (Vector Laboratories), and representative images were photographed using a Nikon inverted microscope Eclipse Ti-U equipped with a digital camera.
To determine whether the enhancement of AZD2014 therapeutic efficiency by combination with NSC measured in vitro extends to an orthotopic model, GSC JK83 glioma spheres were employed to initiate intracerebral xenografts in mice.

Test [5] deals with intracranial GBM6FL TMZ res xenografts. Nature of the test: Intracranial PDX GBM6FL temozolomide resistant xenograft model. The class given is in vivo, mice. To be noted: compared to vehicle-treated brain xenografts. The source says:
FIG. 8. Combination therapy of autophagy inhibitor NSC185058 (NSC) with IR+TMZ suppressed growth of intracranial GBM6FL temozolomide (TMZ) resistant (res) xenografts. […] Mice were imaged at the indicated day after the implantation, and representative BLI images are shown. (B) Changes in the body weight of the mice in each respective treatment groups. (C, D) Effects of NSC, IR, TMZ and the indicated combinations on GBM6FL TMZ res orthotopic xenografts in mice. The luminescence of xenograft tumors formed by indicated treatment. **p<0.01 compared to vehicle controls. Colored scale bars represent photons/s/cm2/steradian. (E, F) Kaplan-Meier (E) and log-rank p value analyses (F) of mice bearing GBM6FL TMZ res orthotopic xenografts with indicated treatments. First and second IR+TMZ+NSC tri-treatments were started at day 7 and day 35 post-implantation, respectively.
GBM6FL TMZ res orthotopic xenograft model was recently established by Dr. Charles David James at Northwestern University as intracranial GBM xenografts after three runs of TMZ treatments and subsequent passages in the flanks of mice.

As to `CNC(=O)c1cccc(-c2ccc3c(N4CCOC[C@@H]4C)nc(N4CCOC[C@@H]4C)nc3n2)c1` [AZD2014, vistusertib], the “concentration at which cell viability was significantly decreased” value is 0.1 µM in the test with U87 cells; 1 µM in the test with GSC JK83 and M83 (GSC JK83 and M83, 72 h). For the same molecule, the cell viability result with GSC JK83 and M83 (72 h, combination compared with monotherapy, AZD2014 alone) was “displayed inhibitor effects on GBM cell viability”. In addition, the “inhibition efficiency on GSCs compared with glioma cells” value with GSC JK83 and M83 (same concentration of AZD2014, GSCs vs U87) is recorded as “significantly lower than glioma cells”. Besides, the “mTOR signaling and ULK1 phosphorylation” value in test [1] (GSC83 and JK83 cells, 72 hr) was “inhibited mTOR induced p-52448/81-mTOR, p-S473-Akt, p-S6, p-S757-ULK1”. For the same molecule, the “concentration giving complete block of mTORC1/2 activities” value in test [1] (GSC M83 and JK83) was 2 µM. In addition, in test [1] (GSC M83 and JK83), the “concentration giving strong inhibition of mTORC1/2 activities” value was found to be 1 µM. Also, the “time by which inhibition of mTORC1 and mTORC2 was detectable” value in test [1] (GSC M83 and JK83, 2 μM AZD2014) is no more than 2 h. Moreover, the “inhibition of p-S6, p-4EBP1, p-AKT (Ser473)” value in test [1] (GSC M83 and JK83, 1 hr) was “dose-dependently inhibited p-S6, p-4EBP1, and p-AKT (Ser473)”. Moreover, the “autophagy markers (LC3B conversion, p62 and LAMP2 degradation)” value in test [2] is “increased LC3-II conversion (LC3B-II/I ratio) and p62/SQSTM-1 degradation; also recorded: induced autophagic influx by inducing LC3B lipidation and degradation of p62 and LAMP2”. Further, the “autophagosomes number (LC3 B immunofluorescence)” value in test [3] was “increase of autophagosomes number”. In addition, the “levels of p-4EBP1 and p-AKT in tumor tissues” value in test [4] (AZD2014 alone or in combination with NSC vs control) is “significantly reduced in the levels of p-4EBP1 and p-AKT”. In addition, in test [4] (NSC (100 mg/kg), AZD2014 (50 mg/kg), alone or combined, vs control), the mouse survival entry is recorded as “modest but significant effects on mouse survival”.

As for `Cn1nnc2c(C(N)=O)ncn2c1=O` [TMZ, temozolomide], the “response of xenografts to TMZ treatments” value in test [5] is reported as “no response”.
